# Data published in patent publication US12264185B2, “Stabilized BCL9 peptides for treatment of aberrant Wnt signaling” (WntRx Pharmaceuticals Inc., priority 2015, dated 2025).
# pIC50: −log10 of the molar value. Where two headings read alike, the source gives them in different places.
# What was measured:
# [1] = Preliminary stability study of salt form; type: physicochemical; conditions: trifluroacetic acid salt form, 2-8° C. and room temperature, at least one month
# TGF-beta = TGF-beta transcription assay (SBE-bla HEK 293T cell line); type: cell-based
# Source text: In these assays, the trifluoroacetic salt form of WX-024 was used.
# B16F10 cells = experiment: B16F10 syngeneic model in C57BL/6 mice; type: in vivo
# Experimental: C57BL/6 mice were inoculated with B16F10 cells. Female C57BL/6 mice aged 4-5 weeks were inoculated with B16F10 cells (2×10^5 cells in 0.05 ml per mouse) in the right flank. When the average tumor size of the mice reached 100 mm^3, the mice were divided into two groups (N=6). […] The treatment was intraperitoneally administered daily for 14 consecutive days.
# The treatment was intraperitoneally administered daily for 12 consecutive days. At the end of the treatment, the mice were sacrificed and tumor and blood samples were collected in anticoagulation tubes. Single cell separation was performed for each sample and then stained for FACS analysis. For cell surface staining, CD45-PerCP-Cy5, CD4-FITC, CD8-PE-Cy7, and CD25-PE were used. The tumor samples were then stained with either an anti-CD4 antibody or an anti-CD8 antibody to assess the presence of T cells in the tumor samples. The tumor samples were also stained with an anti-CD194 antibody and anti-CD196 antibody to assess the presence of T helper 17 cells in the tumor samples.
# The process of constructing WX-039 is described in Example 10. C57BL/6 mice were inoculated with B16F10 cells. […] The treatment was intraperitoneally administered daily for 12 consecutive days. At the end of the treatment, the mice were sacrificed and tumor and blood samples were collected in anticoagulation tubes. Tumor cells collected from the experiment were stained as described above and also with anti-CD205 antibody to assess whether WX compounds are capable of modulating dendritic cells.
# The ability of WX-039 to suppress tumor growth was assessed in the animal model described in Example 5.4. Briefly, C57BL/6 mice were inoculated with B16 cells. Female C57BL/6 mice aged 5 weeks were inoculated with B16F10 cells (2×10^5 cells in 0.05 ml per mouse) in the right flank. When the average tumor size of the mice reached 100 mm^3, the mice were divided into two groups (N=3). The first group was administered 60 mg/kg WX-039 while the second group was treated with a vehicle. The treatment was intraperitoneally administered daily for 12 consecutive days.
# NCI-H1299-Luc cells = experiment: NCI-H1299-Luc orthotopic model in balb/c nude mice; type: in vivo; conditions: 15 mg/kg i.v. daily, 10 days
# Source text: Orthotopic mouse models are useful to visualize the effect of an anti-tumor compound on a tumor implanted in a mouse and to assess the effect of the compound on tumor metastasis. An orthotropic model utilizing the NCI-H1299-Luc cell line (non-small-cell lung carcinoma cell line expressing luciferase) was selected for this experiment. Upon uptake of luciferin substrate, these cells are capable of producing bioluminescence. Proliferation of the NCI-H1299 cell line is dependent on Pygopus (Pygo) 2/β-catenin transcription activity, in which TCF-1 transcription factors (BCL9, β-cat and Pygo) form a transcription complex to initiate transcription.
# The mice were about 5 weeks of age. NCI-H1299-Luc cells (5×10^6) in 50 μL in PBS were injected into each mouse lung with a syringe.
# The bioluminescence intensity (total Flux [p/s]) of each mouse was measured periodically throughout the study according to manufacturer protocol (Xenogen ivis imaging system, PerkinElmer).
# [2] = system: patient derived colon cancer cells; experiment: Patient derived xenograft (PDX) colon cancer model in NOD/SCID mice; type: in vivo; conditions: 15 mg/kg i.v. daily
# Source text: To assess whether WX-024 is also applicable to tumor derived from human patients, a xenograft animal model inoculated with patient derived colon cancer cells was exposed to WX-024. Samples derived from four different colon cancer patients were screened for biomarkers that indicate an elevated level of canonical Wnt/β-catenin signaling. […] The samples were also stained for nuclear co-localization of BCL9 and β-catenin. […] Male NOD/SCID mice at about 5 weeks of age were […] with colon cancer cells derived from patient #8. Briefly, the selected CRC tumor samples from FIG. 28A were sliced into 3 mm^3 fragments and subcutaneously implanted onto the right flank of NOD/SCID mice. […] Each moue was given a daily intravenous administration for more than 31 days. […] At the end of the study, the mice were sacrificed and tumor samples were collected.
# in vivo [3] = conditions: male, ICR, mouse
# Experimental: The tail vein was used for i.v. injections. […] Following injections, blood samples were obtained via the retro-orbital vein at 5 min, 1, 2, 4, 6, 8, 12, and 24 hours postdose. Plasma was obtained from the blood samples following mixing with sodium heparin and centrifugation.
# LC analysis was done using an Agilent 100 HPLC. MS analysis was done using an AB Sciex API 4000. Calibration standards were prepared by serial dilution.
# The maximum observed concentration (Cmax), terminal half-life (T1/2), total body clearance (CL), volume of distribution (Vz), area under the curve from the time of dosing to the last measurable concentration (AUC0-t), area under the curve from the time of dosing extrapolated to infinity (AUC0-inf), and bioavailability were calculated using noncompartmental analysis modules in the FDA-certified pharmacokinetic program WinNonlin Professional v5.2 (Pharsight).
# Briefly, the mice were administered 1 mg/kg or 5 mg/kg intravenously, or 5 mg/kg intraperitoneally. Blood samples were collected at 15 min, 1, 2, 3, 6, 8, 12, and 24 hours post administration.
# in vivo [4] = conditions: female, balb/c, mouse, ip
# [5] = Toxicokinetics, 14 days i.p., female balb/c mice; conditions: for half-life: female, balb/c, mouse, plasma, ip
# [6] = 20 mg/kg WX-024 or 60 mg/kg WX-039 i.p. daily, 12 days
# [7] = IP-10 mg/kg, after the first dosing (day 1)
# [8] = IP-15 mg/kg, after the first dosing (day 1)
# [9] = IP-20 mg/kg, after the first dosing (day 1)
smiles,measurement,setting,value
"CC[C@H](C)[C@@H]1NC(=O)[C@@](C)(NC(=O)[C@H](CCCNC(=N)N)NC(=O)[C@H](CC(C)C)NC(=O)[C@@H](NC(=O)[C@H](CCC(N)=O)NC(=O)[C@H](CC(C)C)NC(C)=O)[C@@H](C)O)CCCC=CCCC[C@@](C)(C(=O)N[C@@H](CC(C)C)C(=O)N[C@@H](Cc2ccc3ccccc3c2)C(N)=O)NC(=O)[C@H](CCCNC(=N)N)NC(=O)[C@H](CCC(N)=O)NC1=O [WX-024, LQTLRXaa1IQRXaa2L]",stability,[1],stable
same,pIC50,"TGF-beta; Example 4.5, read-out: IC50, TGF-beta transcription assay",< 5.00
same,IC50,"TGF-beta; SBE-bla HEK 293T, TGF-beta 1 stimulation, trifluoroacetic salt form, read-out: IC50 (nM), TGF-beta pathway",> 3160 nM
same,pIC50,"TGF-beta; summary, Example 6, read-out: IC50, TGF-0 reporter assay",< 7.00
same,T helper 17 cells in tumor,B16F10 cells; [6],more effective than WX-039
same,dendritic cells (CD205+) in tumor,B16F10 cells; [6],significantly reduced
same,CD4+ positive cells in tumor samples,"B16F10 cells; 25 mg/kg i.p. daily, 12 days",increased
same,CD8+ positive cells in tumor samples,"B16F10 cells; 25 mg/kg i.p. daily, 12 days",increased
same,tumor growth compared to vehicle,"B16F10 cells; 25 mg/kg i.p. daily, 14 days",effectively reduced tumor growth
same,tumor formation and growth (bioluminescence total flux),NCI-H1299-Luc cells,almost completely blocked tumor formation and growth in vivo
same,CD44 expression in tumor samples,[2],capable of reducing CD44 expression
same,average tumor growth inhibition rate,[2]; after 31 days of dosing,75.6%
same,half-life,in vivo [3],2.4 to 2.5 h
same,AUC(0-inf),in vivo [4]; 10 mg/kg,41.1 µg·h/mL
same,AUC(0-t),in vivo [4]; 10 mg/kg,37.8 µg·h/mL
same,Tmax,in vivo [4]; 10 mg/kg,2 h
same,AUC(0-inf),in vivo [4]; 15 mg/kg,109 µg·h/mL
same,AUC(0-t),in vivo [4]; 15 mg/kg,107 µg·h/mL
same,Cmax,in vivo [4]; 15 mg/kg,8.75 µg/mL
same,Tmax,in vivo [4]; 15 mg/kg,3.33 h
same,AUC(0-inf),in vivo [4]; 20 mg/kg,161 µg·h/mL
same,AUC(0-t),in vivo [4]; 20 mg/kg,160 µg·h/mL
same,Cmax,in vivo [4]; 20 mg/kg,13.7 µg/mL
same,Tmax,in vivo [4]; 20 mg/kg,4 h
same,AUCINF,[5]; [7],117 µg·h/mL
same,AUClast,[5]; [7],114333 ng·h/mL
same,Cmax,[5]; [7],11.39 µg/mL
same,Terminal t1/2,[5]; [7],4.52 h
same,Tmax,[5]; [7],1.50 h
same,Cmax,"[5]; IP-10 mg/kg, after the last dosing (day 14)",11.36 µg/mL
same,AUCINF,[5]; [8],129.1 µg·h/mL
same,AUClast,[5]; [8],"118,033 hr*ng/mL"
same,Cmax,[5]; [8],9.767 µg/mL
same,Terminal t1/2,[5]; [8],7.59 h
same,AUCINF,[5]; [9],175.333 µg·h/mL
same,AUClast,[5]; [9],"162,333 hr*ng/mL"
same,Cmax,[5]; [9],12.733 µg/mL
same,Terminal t1/2,[5]; [9],6.47 h
same,Tmax,[5]; [9],2.67 h
same,half-life,[5]; 10 mg/kg,6.97 h
same,half-life,[5]; 15 mg/kg,4.25 h
same,half-life,[5]; 20 mg/kg,4.55 h
